Data on 1 compound can be found in paper PMC4331650 (Biochimica et Biophysica Acta, 2014).

Substitutions are numbered along the chain they refer to. Where two headings read alike, the source gives them in different places.

The target in experiment [1] is T1, WT CLC-Ka (Homo sapiens, UniProt P51800).
T1 sequence (P51800 1-687): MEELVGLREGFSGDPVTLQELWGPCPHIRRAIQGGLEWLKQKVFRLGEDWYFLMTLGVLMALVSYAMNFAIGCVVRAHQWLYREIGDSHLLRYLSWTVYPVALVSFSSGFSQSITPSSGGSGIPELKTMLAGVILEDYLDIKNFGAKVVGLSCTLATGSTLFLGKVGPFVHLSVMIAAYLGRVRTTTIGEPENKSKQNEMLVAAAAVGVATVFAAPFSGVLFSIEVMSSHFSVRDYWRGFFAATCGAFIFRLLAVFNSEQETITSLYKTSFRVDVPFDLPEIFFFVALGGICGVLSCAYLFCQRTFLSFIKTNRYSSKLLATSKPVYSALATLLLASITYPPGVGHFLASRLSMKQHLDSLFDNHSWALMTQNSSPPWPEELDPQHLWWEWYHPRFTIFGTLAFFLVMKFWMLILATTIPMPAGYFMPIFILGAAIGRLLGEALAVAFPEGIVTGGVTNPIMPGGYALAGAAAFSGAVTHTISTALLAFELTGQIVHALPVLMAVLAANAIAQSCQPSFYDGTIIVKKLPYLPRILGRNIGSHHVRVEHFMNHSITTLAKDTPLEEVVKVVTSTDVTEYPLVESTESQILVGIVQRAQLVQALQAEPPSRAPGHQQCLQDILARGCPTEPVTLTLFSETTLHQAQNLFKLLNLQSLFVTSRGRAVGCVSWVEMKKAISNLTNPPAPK
T1 sequence (Q8WZ55 1-320 Y98A partner): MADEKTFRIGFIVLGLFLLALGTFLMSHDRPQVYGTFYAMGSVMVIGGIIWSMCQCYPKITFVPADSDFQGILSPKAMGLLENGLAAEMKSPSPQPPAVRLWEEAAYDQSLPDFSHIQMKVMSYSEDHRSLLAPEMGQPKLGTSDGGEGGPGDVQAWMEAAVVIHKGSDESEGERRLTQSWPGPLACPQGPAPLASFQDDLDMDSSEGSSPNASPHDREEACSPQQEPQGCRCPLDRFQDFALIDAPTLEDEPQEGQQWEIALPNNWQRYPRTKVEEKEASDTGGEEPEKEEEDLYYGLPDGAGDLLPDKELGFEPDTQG
Description: NFA modulation of WT CLC-Ka currents, voltage clamp in Xenopus oocytes. The class given is cell-based.

Experiment [2] addresses T2, N257A CLC-Ka (Homo sapiens, UniProt P51800, N257A).
T2 sequence (P51800 1-687 N257A): T1 sequence (P51800 1-687) with N257A
T2 sequence (Q8WZ55 1-320 Y98A partner): T1 sequence (Q8WZ55 1-320 Y98A partner)
It counts as cell-based. The following applies: 4 μM NFAext in the presence of 100 μM CPAint; −100 mV and 60 mV.

Experiment [3] addresses T1, WT CLC-Ka. The note with it: Xenopus oocytes, cited from earlier work.

`O=C(O)c1cccnc1Nc1cccc(C(F)(F)F)c1` [NFA, niflumic acid] showed a current increase in experiment [1] (200 μM NFA, WT CLC-Ka in Xenopus oocytes) of 3 fold. The “effect of NFA on currents” value is reported as “inhibited” in experiment [1] ([NFA]ext > 500 μM) and “not changed” in experiment [1] (very low [NFA]ext). Besides, the “maximal stimulation of currents” value in experiment [1] (at 500 μM NFA, currents at 60 mV normalized to 0 NFA) is recorded as 4 fold. Moreover, in experiment [2], the “effect of NFA on single channel conductance” value is on record as “does not affect the conductance”. For the same compound, the “effect on CLC-Ka currents” value is listed as “block” in experiment [3] ([NFA]ext higher than 0.5 mM) and “increases” in experiment [3] ([NFA]ext ≤ 0.5 mM).
